ChEMBL document CHEMBL4613209, “Quinolone hybrids and their anti-cancer activities: An overview” (Eur J Med Chem, 2019)

Legend:
Format in all cases: functional, cell-based
A-431 = experiment: Cytotoxicity against human A431 cells assessed as reduction in cell viability by MTT assay
EJ = experiment: Cytotoxicity against human EJ cells assessed as reduction in cell viability by MTT assay
MCF7 = experiment: Cytotoxicity against human MCF7 cells assessed as reduction in cell viability by MTT assay
SW480 = experiment: Cytotoxicity against human SW480 cells assessed as reduction in cell viability by MTT assay
SK-MEL3 = experiment: Cytotoxicity against human SK-MEL-3 cells assessed as reduction in cell viability by MTT assay
L1210 = experiment: Cytotoxicity against mouse L1210 cells assessed as reduction in cell viability
CHO = experiment: Cytotoxicity against CHO cells assessed as reduction in cell viability; conditions: Cricetulus griseus
HL-60 = experiment: Cytotoxicity against human HL60 cells assessed as reduction in cell viability

| SMILES | IC50 (A-431) | IC50 (EJ) | IC50 (MCF7) | IC50 (SW480) | IC50 (SK-MEL3) | IC50 (L1210) | IC50 (CHO) | IC50 (HL-60) |
| --- | --- | --- | --- | --- | --- | --- | --- | --- |
| CCn1cc(C(=O)O)c(=O)c2cc(F)c(N3CCN(CC(=O)c4cccs4)CC3)nc21 | 2 to 131 µM | 2 to 131 µM | 2 to 131 µM | 2 to 131 µM | 2 to 131 µM |  |  |  |
| CCn1cc(C(=O)O)c(=O)c2cc(F)c(N3CCN(C/C(=N/O)c4ccc(Cl)s4)CC3)cc21 | ≤ 20 µM | ≤ 20 µM | ≤ 20 µM | ≤ 20 µM | ≤ 20 µM |  |  |  |
| CO/N=C(/CN1CCN(c2cc3c(cc2F)c(=O)c(C(=O)O)cn3C2CC2)CC1)c1ccc(Cl)s1 | ≤ 20 µM | ≤ 20 µM | ≤ 20 µM | ≤ 20 µM | ≤ 20 µM |  |  |  |
| CCn1cc(C(=O)O)c(=O)c2cc(F)c(N3CCN(C/C(=N/OC)c4cccs4)CC3)cc21 | 2 to 131 µM | 2 to 131 µM | 2 to 131 µM | 2 to 131 µM | 2 to 131 µM |  |  |  |
| CCn1cc(C(=O)O)c(=O)c2cc(F)c(N3CCN(C/C(=N/OCc4ccccc4)c4cccs4)CC3)cc21 | 2 to 131 µM | 2 to 131 µM | 2 to 131 µM | 2 to 131 µM | 2 to 131 µM |  |  |  |
| CCn1cc(C(=O)O)c(=O)c2cc(F)c(N3CCN(C/C(=N/OCc4ccccc4)c4ccc(Cl)s4)CC3)cc21 | ≤ 20 µM | ≤ 20 µM | ≤ 20 µM | ≤ 20 µM | ≤ 20 µM |  |  |  |
| CCn1cc(C(=O)O)c(=O)c2cc(F)c(N3CCN(CC(=O)c4cccs4)CC3)cc21 | 2 to 131 µM | 2 to 131 µM | 2 to 131 µM | 2 to 131 µM | 2 to 131 µM |  |  |  |
| O=C(O)c1cn(C2CC2)c2cc(N3CCN(C/C(=N/OCc4ccccc4)c4cccs4)CC3)c(F)cc2c1=O | 2 to 131 µM | 2 to 131 µM | 2 to 131 µM | 2 to 131 µM | 2 to 131 µM |  |  |  |
| CCn1cc(C(=O)O)c(=O)c2cc(F)c(N3CCN(C/C(=N/O)c4cccs4)CC3)nc21 | 2 to 131 µM | 2 to 131 µM | 2 to 131 µM | 2 to 131 µM | 2 to 131 µM |  |  |  |
| CCn1cc(C(=O)O)c(=O)c2cc(F)c(N3CCN(C/C(=N/O)c4ccc(Cl)s4)CC3)nc21 | ≤ 20 µM | ≤ 20 µM | ≤ 20 µM | ≤ 20 µM | ≤ 20 µM |  |  |  |
| CCn1cc(C(=O)O)c(=O)c2cc(F)c(N3CCN(CC(=O)c4ccc(Cl)s4)CC3)cc21 | ≥ 100 µM | ≥ 100 µM | ≥ 100 µM | ≥ 100 µM | ≥ 100 µM |  |  |  |
| O=C(CN1CCN(c2cc3c(cc2F)c(=O)c(C(=O)O)cn3C2CC2)CC1)c1cccs1 | 2 to 131 µM | 2 to 131 µM | 2 to 131 µM | 2 to 131 µM | 2 to 131 µM |  |  |  |
| CCN1CCN(c2cc3c(cc2F)c(=O)c(-c2nnc4sc(-c5cn(CC)c6cc(N7CCN(C)CC7)c(F)cc6c5=O)nn24)cn3C2CC2)CC1 |  |  |  |  |  | 0.12 to 5.2 µM | 0.12 to 5.2 µM | 0.12 to 5.2 µM |
| CCn1cc(C(=O)O)c(=O)c2cc(F)c(N3CCN(C/C(=N/OC)c4ccc(Cl)s4)CC3)nc21 | ≤ 20 µM | ≤ 20 µM | ≤ 20 µM | ≤ 20 µM | ≤ 20 µM |  |  |  |
| O=C(N/N=C/c1ccc(Cl)cc1)c1cn(C2CC2)c2cc(N/N=C/c3ccc(Cl)cc3)c(F)cc2c1=O |  |  |  |  |  | 1.5 to 23.5 µM | 1.5 to 23.5 µM | 1.5 to 23.5 µM |
| O=C(CN1CCN(c2cc3c(cc2F)c(=O)c(C(=O)O)cn3C2CC2)CC1)c1ccc(Cl)s1 | ≥ 100 µM | ≥ 100 µM | ≥ 100 µM | ≥ 100 µM | ≥ 100 µM |  |  |  |
| C[C@H]1COc2c(N3CCN(C)CC3)c(F)cc3c(=O)c(-c4nn5c(-c6cn(C7CC7)c7cc(N8CCN(C)CC8)c(F)cc7c6=O)nnc5s4)cn1c23 |  |  |  |  |  | 0.12 to 5.2 µM | 0.12 to 5.2 µM | 0.12 to 5.2 µM |
| COc1ccccc1/C=N/NC(=O)c1cn(C2CC2)c2cc(N/N=C/c3ccccc3OC)c(F)cc2c1=O |  |  |  |  |  | 1.5 to 23.5 µM | 1.5 to 23.5 µM | 1.5 to 23.5 µM |
| O=C(O)c1cn(C2CC2)c2cc(N3CCN(C/C(=N/OCc4ccccc4)c4ccc(Cl)s4)CC3)c(F)cc2c1=O | ≤ 20 µM | ≤ 20 µM | ≤ 20 µM | ≤ 20 µM | ≤ 20 µM |  |  |  |
| CN1CCN(c2cc3c(cc2F)c(=O)c(-c2nnc4sc(-c5cn(C6CC6)c6nc(N7CCN(C)CC7)c(F)cc6c5=O)nn24)cn3C2CC2)CC1 |  |  |  |  |  | 0.12 to 5.2 µM | 0.12 to 5.2 µM | 0.12 to 5.2 µM |
| O=C(O)c1cn(C2CC2)c2cc(N3CCN(C/C(=N/O)c4ccc(Cl)s4)CC3)c(F)cc2c1=O | ≤ 20 µM | ≤ 20 µM | ≤ 20 µM | ≤ 20 µM | ≤ 20 µM |  |  |  |
| COc1cc(/C=N/NC(=O)c2cn(C3CC3)c3cc(N/N=C/c4ccc(O)c(OC)c4)c(F)cc3c2=O)ccc1O |  |  |  |  |  | 1.5 to 2.8 µM | 1.5 to 2.8 µM | 1.5 to 2.8 µM |
